Reference: patent US20220125844A1 (priority 2020, published 2022)

What was measured:
[1] = tested on: CAR-NK cells (effector) with MV-4-11 target cells; experiment: CAR-NK cell apoptosis assay, annexin V staining and flow cytometry; type: cell-based, human; conditions: clinically-relevant concentration, morphine 25 ng/mL, two-hour incubation of effector cells; data only in FIG. 1
[2] = tested on: primary human NK cells (effector) with MV-4-11 target cells; experiment: Primary human NK cell apoptosis assay, annexin V staining and flow cytometry; type: cell-based; conditions: clinically-relevant concentration, morphine 25 ng/mL, two-hour incubation of effector cells; data only in FIG. 1
[3] = tested on: primary human natural killer (NK) cells; conditions: cited from earlier work

| SMILES | effect on CAR-NK cell function (ability to induce apoptosis in MV-4-11 cells) [1] | effect on primary human NK cell function (ability to induce apoptosis in MV-4-11 cells) [2] | primary human NK cell cytotoxicity after preincubation with opioid [3] |
| --- | --- | --- | --- |
| CN1CC[C@]23c4c5ccc(O)c4O[C@H]2[C@@H](O)C=C[C@H]3[C@H]1C5 [morphine] | functionally inhibited | functionally inhibited | reduced |
| C[C@@H](NC(=O)[C@@H](N)Cc1ccc(O)cc1)C(=O)NCC(=O)N(C)[C@@H](Cc1ccccc1)C(=O)NCCO [DAMGO, [D-Ala2, N-Me-Phe4, Gly5-ol]-enkephalin] | – | – | reduced |
| CCC(=O)C(CC(C)N(C)C)(c1ccccc1)c1ccccc1 (centres unmarked) [methadone] | – | – | reduced |
